Data taken from ChEMBL document CHEMBL6120994, “Unravelling the potential of natural chelating agents in the control of Staphylococcus aureus and Pseudomonas aeruginosa biofilms” (Eur J Med Chem, 2025).
Values after ≈ are worked out from the molar mass of the structure shown. Active and inactive are the calls of the source. The calls are words filed in the database; no cut-off is given here.

Assays:
Pseudomonas aeruginosa [1] = test: Antibiotic adjuvant activity against Pseudomonas aeruginosa ATCC 10145 assessed as potentiation of ciprofloxacin-induced antibiofilm activity by measuring reduction in biomass production at 500 ug/ml measured after 24 hrs in presence of 1/16XMIC ciprofloxacin by cystal violet staining method (reference value: 36%); assay type: functional
Pseudomonas aeruginosa [2] = test: Antibiotic adjuvant activity against Pseudomonas aeruginosa ATCC 10145 assessed as ciprofloxacin MBC at 125 ug/ml measured after 24 hrs in presence of ciprofloxacin by checkerboard assay (reference value: 32 ug/ml); assay type: functional; settings: dose 125 µg/ml
Staphylococcus aureus [3] = test: Antibiofilm activity against preestablished 24 hr-old Staphylococcus aureus CECT 976 assessed as reduction in biofilm cells culturability by measuring log reduction of CFU of biofilm cells at 10XMTC measured after 24 hrs by visual counting method; assay type: functional
Pseudomonas aeruginosa [4] = test: Antibacterial activity against Pseudomonas aeruginosa ATCC 10145 assessed as inhibition of bacterial growth incubated for 24 hrs by broth microdilution method; assay type: functional
Staphylococcus aureus [5] = test: Antibiotic adjuvant activity against Staphylococcus aureus CECT 976 assessed as fold potentiation of tobramycin-induced antibiofilm activity by measuring reduction in biomass production at 500 ug/ml measured after 24 hrs in presence of 1/4XMIC tobramycin by crystal violet staining method relative to tobramycin treated control; assay type: functional; settings: dose 500 µg/ml
Staphylococcus aureus [6] = test: Inhibition of virulence production in pre-established 24 hr-old Staphylococcus aureus CECT 976 biofilms assessed as diameter of lipases halo at 10XMTC measured after 48 hrs in presence of 1/2XMIC tobramycin (reference value: 11.5 to 12.3 mm); assay type: functional
Pseudomonas aeruginosa [7] = test: Antibiofilm activity against Pseudomonas aeruginosa PAK01 biofilm assessed as reduction of bacterial biomass by crystal violet staining based analysis; assay type: functional
Staphylococcus aureus [8] = test: Antibacterial activity against Staphylococcus aureus CECT 976 assessed as inhibition of bacterial growth by measuring inhibition zone diameter at 1000 ug/ml incubated for 24 hrs in presence of tobramycin by disc diffusion method (reference value: 12.5 +/- 1.29 mm); assay type: functional; settings: read-out: DIZ
Escherichia coli = test: Antibacterial activity against Escherichia coli BNCC133721 assessed as inhibition of bacterial growth measured after 24 hrs by broth microdilution method; assay type: functional
Staphylococcus aureus [9] = test: Antibacterial activity against Staphylococcus aureus CECT 976 assessed as inhibition of bacterial growth by measuring inhibition zone diameter at 1000 ug/ml incubated for 24 hrs in presence of tetracycline by disc diffusion method (reference value: 24 +/- 1.41 mm); assay type: functional; settings: read-out: DIZ
Staphylococcus aureus [10] = test: Inhibition of virulence production in pre-established 24 hr-old Staphylococcus aureus CECT 976 biofilms assessed as diameter of gelatinases halo at 10XMTC measured after 48 hrs in presence of 1XMIC tobramycin (reference value: 9.5 to 10 mm); assay type: functional
Pseudomonas aeruginosa [11] = test: Antibiofilm activity against Pseudomonas aeruginosa ATCC 10145 assessed as reduction in metabolic activity of biofilm cells at 500 to 1000 ug/ml by resazurin staining based fluorescence analysis; assay type: functional, organism-based; settings: dose 500-1000 µg/ml
Pseudomonas aeruginosa [12] = test: Antibiotic adjuvant activity against Pseudomonas aeruginosa ATCC 10145 assessed as fractional inhibitory concentration index (MBC) at 125 ug/ml measured after 24 hrs in presence of ciprofloxacin by checkerboard assay; assay type: functional; settings: dose 125 µg/ml
Staphylococcus aureus [13] = test: Antibiotic adjuvant activity against preestablished 24 hr-old Staphylococcus aureus CECT 976 assessed as potentiation of tobramycin-induced antibiofilm activity by measuring reduction of biomass at 10000 ug/ml measured after 24 hrs in presence of 1/4XMIC to MIC tobramycin by crystal violet staining method; assay type: functional, organism-based; settings: dose 10000.0 µg/ml
Pseudomonas aeruginosa [14] = test: Antibiofilm activity against Pseudomonas aeruginosa ATCC 10145 assessed as reduction in biomass production at 500 to 1000 ug/ml measured after 24 hrs by crystal violet staining method; assay type: functional, organism-based; settings: dose 500-1000 µg/ml
Pseudomonas aeruginosa [15] = test: Antibiofilm activity against Pseudomonas aeruginosa ATCC 10145 assessed as reduction in biofilm cells culturability by measuring reduction in number of CFU at 500 to 1000 ug/ml measured after 24 hrs by visual counting method; assay type: functional, organism-based; settings: dose 500-1000 µg/ml
Staphylococcus aureus [16] = test: Antibiofilm activity against Staphylococcus aureus ATCC 6538 assessed as reduction in biomass at 700 ug/ml measured after 48 hrs by crystal violet staining based analysis; assay type: functional
Acinetobacter baumannii = test: Antibacterial activity against Acinetobacter baumannii assessed as inhibition of bacterial growth incubated for 16 hrs by broth microdilution method; assay type: functional
Staphylococcus aureus [17] = test: Antibiotic adjuvant activity against Staphylococcus aureus CECT 976 assessed as potentiation of tobramycin-induced antibiofilm activity by measuring reduction of CFU of biofilm cells at 500 ug/ml measured after 24 hrs in presence of 1/2X to 1/8XMIC tobramycin by visual counting method; assay type: functional; settings: dose 500 µg/ml
Pseudomonas aeruginosa [18] = test: Antibiofilm activity against Pseudomonas aeruginosa ATCC 10145 assessed as reduction in biomass production at 500 ug/ml measured after 24 hrs by crystal violet staining method; assay type: functional
Staphylococcus aureus [19] = test: Antibacterial activity against Staphylococcus aureus assessed as loss of intracellular content at 5000 ug/ml incubated for 4 hrs by transmission electron microscopy; assay type: functional; settings: dose 5000 µg/ml
Staphylococcus aureus [20] = test: Antibacterial activity against Staphylococcus aureus assessed as inhibition of bacterial growth incubated for 24 hrs by broth microdilution method; assay type: functional
Pseudomonas aeruginosa [21] = test: Antibiofilm activity against preestablished 24 hr-old Pseudomonas aeruginosa ATCC 10145 assessed as reduction in biofilm cells culturability by measuring log reduction of CFU of biofilm cells at 10XMTC measured after 24 hrs by visual counting method; assay type: functional
Pseudomonas aeruginosa [22] = test: Antibiotic adjuvant activity against Pseudomonas aeruginosa ATCC 10145 assessed as fractional inhibitory concentration index (MBC) at 15.6 ug/ml measured after 24 hrs in presence of ciprofloxacin by checkerboard assay; assay type: functional; settings: dose 15.6 µg/ml
Pseudomonas aeruginosa [23] = test: Antibiofilm activity against Pseudomonas aeruginosa ATCC 10145 assessed as reduction in metabolic activity of biofilm cells at 1000 ug/ml by resazurin staining based fluorescence analysis; assay type: functional
Pseudomonas aeruginosa [24] = test: Antibacterial activity against Pseudomonas aeruginosa assessed as inhibition of bacterial growth incubated for 24 hrs by broth microdilution method; assay type: functional
Staphylococcus aureus [25] = test: Antibiotic adjuvant activity against preestablished 24 hr-old Staphylococcus aureus CECT 976 assessed as potentiation of tobramycin-induced antibiofilm activity by measuring log reduction of CFU of biofilm cells at 10000 ug/ml in presence of 1/4XMIC to MIC tobramycin measured after 24 hrs by visual counting method; assay type: functional; settings: dose 10000 µg/ml
Pseudomonas aeruginosa [26] = test: Antibiofilm activity against Pseudomonas aeruginosa ATCC 10145 assessed as reduction in biomass production at 1000 ug/ml measured after 24 hrs by crystal violet staining method; assay type: functional
Pseudomonas aeruginosa [27] = test: Antibiotic adjuvant activity against Pseudomonas aeruginosa ATCC 10145 assessed as ciprofloxacin MBC at 15.6 ug/ml measured after 24 hrs in presence of ciprofloxacin by checkerboard assay (reference value: 32 ug/ml); assay type: functional; settings: dose 15.6 µg/ml
[28] = Cytotoxicity against human HepG2 cells assessed as cell mass at 375 to 500 ug/ml measured after 24 hrs by SRB binding assay; assay type: toxicity, cell-based; settings: at 375 to 500 µg/mL, dose 375-500 µg/ml, read-out: Activity
Staphylococcus aureus [29] = test: Antibiotic adjuvant activity against preestablished 24 hr-old Staphylococcus aureus CECT 976 assessed as potentiation of tobramycin-induced antibiofilm activity by measuring reduction of biomass at 10000 ug/ml measured after 24 hrs in presence of 1/4XMIC tobramycin by crystal violet staining method; assay type: functional

## O=c1cc(CO)occ1O [KOJIC ACID]
Pseudomonas aeruginosa [1]
  inhibition at 500 µg/mL: 60%
Pseudomonas aeruginosa [2]
  MBC: 32 µg/mL
Staphylococcus aureus [3]
  Activity: 1.9 log10CFU/cm^-2
Pseudomonas aeruginosa [4]
  MIC: > 1000 µg/mL
Staphylococcus aureus [5]
  fold change (FC): 2.6
Staphylococcus aureus [6]
  Activity: 2 mm
Pseudomonas aeruginosa [7]
  inhibition (INH): 5%
Staphylococcus aureus [8]
  zone of inhibition at 1000 µg/mL: 13.2 mm
Escherichia coli
  Activity: >1000 µg/mL
Staphylococcus aureus [9]
  zone of inhibition at 1000 µg/mL: 27.2 mm
Staphylococcus aureus [10]
  Activity: 0 mm
Pseudomonas aeruginosa [11]
  Activity: inactive
Pseudomonas aeruginosa [12]
  fractional inhibitory concentration index (FICI): 1
Staphylococcus aureus [13]
  Activity: inactive
Pseudomonas aeruginosa [14]
  Activity: inactive
Pseudomonas aeruginosa [15]
  Activity: inactive
Staphylococcus aureus [16]
  inhibition at 700 µg/mL: 40%
Acinetobacter baumannii
  MIC: 3410 µg/mL (≈ 24 mM)
Staphylococcus aureus [17]
  Activity: 2 log10CFU/cm^-2

## Cc1occc(=O)c1O [MALTOL]
Pseudomonas aeruginosa [1]
  inhibition at 500 µg/mL: 60%
Pseudomonas aeruginosa [18]
  inhibition at 500 µg/mL: < 15%
Pseudomonas aeruginosa [4]
  MIC: > 1000 µg/mL
Staphylococcus aureus [19]
  Activity: 7.7%
Staphylococcus aureus [20]
  MIC: 4000 µg/mL (≈ 31.7 mM)
Pseudomonas aeruginosa [21]
  Activity: 3.1 log10CFU/cm^-2
Staphylococcus aureus [6]
  Activity: 2.3 mm
Pseudomonas aeruginosa [22]
  fractional inhibitory concentration index (FICI): 1
Pseudomonas aeruginosa [23]
  inhibition at 1000 µg/mL: 30%
Staphylococcus aureus [8]
  zone of inhibition at 1000 µg/mL: 19 mm
Staphylococcus aureus [9]
  zone of inhibition at 1000 µg/mL: 25.8 mm
Pseudomonas aeruginosa [24]
  MIC: 4000 µg/mL (≈ 31.7 mM)
Staphylococcus aureus [10]
  Activity: 0 mm
Staphylococcus aureus [25]
  Activity: 2 log10CFU/cm^-2
Pseudomonas aeruginosa [26]
  inhibition at 1000 µg/mL: 40%
Pseudomonas aeruginosa [27]
  MBC: 32 µg/mL
[28]
  viability at 24 h: 68%
Staphylococcus aureus [29]
  inhibition at 10000 µg/mL: 31%
